From PubChem BioAssay AID248 (DTP/NCI, 2004)
Where “and” joins values, the source holds several entries; their conditions need not be identical. Equal values may be shown once. Toxic doses and inconclusive results are not listed. Cut-off read from the data, not from the text of the source: active = T/C of 150% or more; inactive = T/C below 125%.

Tested on: L1210 leukemia ip in BDF1 mice, survival T/C
Test: NCI In Vivo Anticancer Drug Screen. Data for tumor model L1210 Leukemia (intraperitoneal) in B6D2F1 (BDF1) mice
Conditions: endpoint: mean survival time, higher = longer survival
Procedure, shortened: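 Survival endpoint. Drug-treated group vs vehicle group, expressed as T divided by C. Tumor passaged by transplantation.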

[1] = dose: 100.0 mg/kg/injection, schedule: Q01DX001 (ip), vehicle: saline
[2] = dose: 100.0 mg/kg/injection, schedule: Q01DX009 (ip), vehicle: saline
[3] = dose: 100.0 mg/kg/injection, schedule: Q04DX003 (ip), vehicle: saline
[4] = dose: 200.0 mg/kg/injection, schedule: Q01DX001 (ip), vehicle: saline
[5] = dose: 200.0 mg/kg/injection, schedule: Q01DX009 (ip), vehicle: saline
[6] = dose: 200.0 mg/kg/injection, schedule: Q04DX003 (ip), vehicle: saline
[7] = dose: 400.0 mg/kg/injection, schedule: Q01DX001 (ip), vehicle: saline
[8] = dose: 400.0 mg/kg/injection, schedule: Q01DX009 (ip), vehicle: saline
[9] = dose: 400.0 mg/kg/injection, schedule: Q04DX003 (ip), vehicle: saline
[10] = dose: 100.0 mg/kg/injection, schedule: Q01DX009 (ip), vehicle: Klucel (hydroxypropylcellulose) (HPC)
[11] = dose: 100.0 mg/kg/injection, schedule: Q04DX003 (ip), vehicle: Klucel (hydroxypropylcellulose) (HPC)
[12] = dose: 200.0 mg/kg/injection, schedule: Q01DX009 (ip), vehicle: Klucel (hydroxypropylcellulose) (HPC)
[13] = dose: 200.0 mg/kg/injection, schedule: Q04DX003 (ip), vehicle: Klucel (hydroxypropylcellulose) (HPC)
[14] = dose: 400.0 mg/kg/injection, schedule: Q01DX009 (ip), vehicle: Klucel (hydroxypropylcellulose) (HPC)
[15] = dose: 400.0 mg/kg/injection, schedule: Q04DX003 (ip), vehicle: Klucel (hydroxypropylcellulose) (HPC)
[16] = dose: 25.0 mg/kg/injection, schedule: Q04DX003 (ip), vehicle: saline with Tween-80
[17] = dose: 50.0 mg/kg/injection, schedule: Q04DX003 (ip), vehicle: saline with Tween-80
[18] = dose: 25.0 mg/kg/injection, schedule: Q01DX009 (ip), vehicle: acetone
[19] = dose: 50.0 mg/kg/injection, schedule: Q01DX009 (ip), vehicle: acetone
[20] = dose: 100.0 mg/kg/injection, schedule: Q04DX002 (ip), vehicle: other
[21] = dose: 200.0 mg/kg/injection, schedule: Q04DX002 (ip), vehicle: other
[22] = dose: 400.0 mg/kg/injection, schedule: Q04DX002 (ip), vehicle: other
[23] = dose: 50.0 mg/kg/injection, schedule: Q01DX009 (ip), vehicle: Klucel (hydroxypropylcellulose) (HPC)
[24] = dose: 100.0 mg/kg/injection, schedule: Q04DX003 (ip), vehicle: saline with Tween-80

Measured: T/C

CCOC(=O)C1CN(C)CCC1=O (centres undefined)
inactive: [1] 108 % of control | [2] 123 % of control | [3] 100 % of control | [4] 101 % of control | [5] 98 % of control | [6] 104 % of control | [7] 97 % of control | [8] 96 % of control | [9] 98 % of control

Cc1cc2nc(C)c(=O)[nH]c2cc1C
inactive: [10] 95 % of control | [11] 96 % of control | [12] 98 % of control | [13] 92 % of control | [14] 91 % of control | [15] 92 % of control

Cn1nnc(N)n1
inactive: [1] 98 % of control | [3] 102 % of control | [4] 100 % of control | [6] 96 % of control | [7] 100 % of control | [9] 102 % of control

CCCCCCCCCCCCOCCCN
inactive: dose: 12.5 mg/kg/injection, schedule: Q01DX009 (ip), vehicle: saline with Tween-80 98 % of control | dose: 12.5 mg/kg/injection, schedule: Q04DX003 (ip), vehicle: saline with Tween-80 92 % of control | dose: 25.0 mg/kg/injection, schedule: Q01DX009 (ip), vehicle: saline with Tween-80 90 % of control | [16] 90 % of control | [17] 92 % of control

NC(=O)NC(CCl)NC(N)=O
inactive: [18] 95 % of control | dose: 25.0 mg/kg/injection, schedule: Q04DX003 (ip), vehicle: saline 96 % of control | [19] 94 % of control | dose: 50.0 mg/kg/injection, schedule: Q04DX003 (ip), vehicle: saline 94 % of control | dose: 100.0 mg/kg/injection, schedule: Q01DX001 (ip), vehicle: acetone 94 % of control | [3] 89 % of control

CC(C)N1CCOCC1
inactive: [18] 94 % of control | [19] 105 % of control | dose: 100.0 mg/kg/injection, schedule: Q01DX009 (ip), vehicle: acetone 102 % of control

OCC(O)Cc1ccccc1 (centres undefined)
inactive: [2] 97 % of control | [3] 102 % of control | [5] 105 % of control | [6] 102 % of control | [8] 108 % of control | [9] 101 % of control

CCOC(=O)c1cnc(=O)n(Cc2ccccc2)c1N
inactive: [20] 98 % of control | [21] 95 % of control | [22] 98 % of control

COc1cccc[n+]1CC(=O)c1ccccc1
inactive: [23] 95 % of control | [10] 98 % of control | [12] 95 % of control

C=CCC(CCCCCCCCCCCCC)C(=O)O (centres undefined)
inactive: dose: 100.0 mg/kg/injection, schedule: Q01DX001 (ip), vehicle: saline with Tween-80 96 % of control | dose: 200.0 mg/kg/injection, schedule: Q01DX001 (ip), vehicle: saline with Tween-80 105 % of control | dose: 400.0 mg/kg/injection, schedule: Q01DX001 (ip), vehicle: saline with Tween-80 101 % of control

FC1(F)SC2c3ccccc3CCC2C1(F)F (centres undefined)
inactive: [11] 96 % of control | [13] 95 % of control | [15] 102 % of control

CCOC(=O)C(O)(CC)c1ccncc1C (centres undefined)
inactive: [3] 96 % of control | [6] 98 % of control | [9] 100 % of control

COc1ccc([N+](=O)[O-])cc1NC(=O)Nc1ccc(S(N)(=O)=O)cc1
inactive: [10] 101 % of control | [12] 92 % of control | [14] 94 % of control

CC(SCc1ccccc1)C(=O)O (centres undefined)
inactive: [1] 97 % of control | [4] 94 % of control | [7] 92 % of control

O=C1c2ccccc2C(=O)c2cc(Cl)ccc21
inactive: dose: 100.0 mg/kg/injection, schedule: Q04DX002 (ip), vehicle: Klucel (hydroxypropylcellulose) (HPC) 95 % of control | dose: 200.0 mg/kg/injection, schedule: Q04DX002 (ip), vehicle: Klucel (hydroxypropylcellulose) (HPC) 98 % of control | dose: 400.0 mg/kg/injection, schedule: Q04DX002 (ip), vehicle: Klucel (hydroxypropylcellulose) (HPC) 98 % of control

[N-]=[N+]=C1C=CC=C1C(=O)O
inactive: dose: 12.5 mg/kg/injection, schedule: Q01DX009 (ip), vehicle: Klucel (hydroxypropylcellulose) (HPC) 98 % of control | dose: 25.0 mg/kg/injection, schedule: Q01DX009 (ip), vehicle: Klucel (hydroxypropylcellulose) (HPC) 103 % of control | [23] 97 % of control | dose: 100.0 mg/kg/injection, schedule: Q04DX003 (ip), vehicle: acetone 94 % of control | dose: 200.0 mg/kg/injection, schedule: Q04DX003 (ip), vehicle: acetone 93 % of control | dose: 400.0 mg/kg/injection, schedule: Q04DX003 (ip), vehicle: acetone 91 % of control

CCCCC/C(C=O)=C\c1ccccc1
inactive: dose: 100.0 mg/kg/injection, schedule: Q01DX009 (ip), vehicle: saline with Tween-80 104 % of control | [24] 94 % of control | dose: 200.0 mg/kg/injection, schedule: Q01DX009 (ip), vehicle: saline with Tween-80 91 % of control | dose: 200.0 mg/kg/injection, schedule: Q04DX003 (ip), vehicle: saline with Tween-80 96 % of control | dose: 400.0 mg/kg/injection, schedule: Q01DX009 (ip), vehicle: saline with Tween-80 93 % of control | dose: 400.0 mg/kg/injection, schedule: Q04DX003 (ip), vehicle: saline with Tween-80 105 % of control

Cc1cc2oc(/C=N/NC(N)=S)c(C)c2cc1C
inactive: [10] 100 % of control | [12] 99 % of control | [14] 105 % of control

CCCC1(c2ccccc2)NC(=O)NC1=O (centres undefined)
inactive: [1] 96 % of control | [4] 102 % of control

O=C(O)C1CC2C3CC(C(=O)O)C(C3)C2C1 (centres undefined)
inactive: [2] 96 % of control | [3] 102 % of control | [5] 101 % of control | [6] 100 % of control | [8] 101 % of control | [9] 96 % of control

O=[N+]([O-])c1[nH]c(Br)c(Br)c1Br
inactive: dose: 0.75 mg/kg/injection, schedule: Q01DX009 (ip), vehicle: Klucel (hydroxypropylcellulose) (HPC) 92 % of control | dose: 1.5 mg/kg/injection, schedule: Q01DX009 (ip), vehicle: Klucel (hydroxypropylcellulose) (HPC) 89 % of control | dose: 3.0 mg/kg/injection, schedule: Q01DX009 (ip), vehicle: Klucel (hydroxypropylcellulose) (HPC) 89 % of control

CN(CCC#N)C(=O)Nc1ccc(Cl)c(Cl)c1
inactive: [20] 109 % of control | [21] 102 % of control | [22] 102 % of control

CCSC1OC(C(COC(C)=O)OC(C)=O)C(OC(C)=O)C1NC(=O)OCc1ccccc1 (centres undefined)
inactive: dose: 50.0 mg/kg/injection, schedule: Q01DX001 (ip), vehicle: saline 100 % of control | [1] 97 % of control | [4] 97 % of control | [7] 91 % of control

COc1ccc(C(C#N)CC(=O)c2ccc(OC)c(OCc3ccccc3)c2)cc1OC (centres undefined)
inactive: dose: 25.0 mg/kg/injection, schedule: Q01DX009 (ip), vehicle: saline 96 % of control | dose: 50.0 mg/kg/injection, schedule: Q01DX009 (ip), vehicle: saline 102 % of control | [2] 101 % of control | [5] 101 % of control

CN(C)CCC(O)c1ccc(Cl)cc1 (centres undefined)
inactive: [3] 102 % of control | [6] 98 % of control

O=[N+]([O-])c1cc(N(c2ccccc2)c2ccccc2)ccc1Cl
inactive: dose: 100.0 mg/kg/injection, schedule: Q01DX001 (ip), vehicle: carboxymethylcellulose (CMC) 97 % of control | dose: 200.0 mg/kg/injection, schedule: Q01DX001 (ip), vehicle: carboxymethylcellulose (CMC) 97 % of control | dose: 400.0 mg/kg/injection, schedule: Q01DX001 (ip), vehicle: carboxymethylcellulose (CMC) 95 % of control

CC(C)(CO)NC(=O)COc1ccc(Cl)cc1Cl
inactive: dose: 100.0 mg/kg/injection, schedule: Q04DX002 (ip), vehicle: saline with Tween-80 102 % of control | dose: 200.0 mg/kg/injection, schedule: Q04DX002 (ip), vehicle: saline with Tween-80 94 % of control | dose: 400.0 mg/kg/injection, schedule: Q04DX002 (ip), vehicle: saline with Tween-80 94 % of control
